Experimental data taken from patent US9409866B2, “Pyridine-2-amides useful as CB2 agonists” (Hoffmann-La Roche Inc., priority 2012, dated 2016).
Read-outs that look alike come from different tables or passages of the source.

Legend:
human CB2 receptors = human CB2 receptors (Homo sapiens (Human), UniProt P34972); assay: functional cAMP assay, CHO cells expressing human CB2; format: cell-based
In short: (§1)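 Readout: TR-FRET cAMP detection at 730 and 645 nm with 355 nm excitation, quantified from a standard curve spanning 10 μM to 0.13 nM cAMP. Human CB1- or CB2-expressing CHO cells were exposed to compound for 30 min at 30 °C in KRB buffer containing 1 mM IBMX. EC50 derived.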

human CB1 receptors = human CB1 receptors (Homo sapiens (Human), UniProt P21554); assay: functional cAMP assay, CHO cells expressing human CB1; format: cell-based; settings: functional cAMP assay, CHO cells expressing human CB1
human CB1 receptors, sequence (P21554 whole entry): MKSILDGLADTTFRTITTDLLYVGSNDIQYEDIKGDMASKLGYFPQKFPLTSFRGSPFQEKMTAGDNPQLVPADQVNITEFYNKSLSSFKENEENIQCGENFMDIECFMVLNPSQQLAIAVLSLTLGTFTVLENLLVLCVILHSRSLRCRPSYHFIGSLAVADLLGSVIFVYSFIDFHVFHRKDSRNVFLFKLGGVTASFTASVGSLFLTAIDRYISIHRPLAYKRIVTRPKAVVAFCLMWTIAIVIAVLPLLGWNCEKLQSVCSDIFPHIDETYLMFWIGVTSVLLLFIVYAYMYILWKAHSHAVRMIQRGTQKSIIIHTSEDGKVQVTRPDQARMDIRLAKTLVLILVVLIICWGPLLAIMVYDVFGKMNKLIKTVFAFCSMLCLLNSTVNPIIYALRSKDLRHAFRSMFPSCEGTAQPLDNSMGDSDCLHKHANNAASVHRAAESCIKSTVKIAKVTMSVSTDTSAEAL
In short: as §1

human CB2 receptors, sequence (P34972 whole entry): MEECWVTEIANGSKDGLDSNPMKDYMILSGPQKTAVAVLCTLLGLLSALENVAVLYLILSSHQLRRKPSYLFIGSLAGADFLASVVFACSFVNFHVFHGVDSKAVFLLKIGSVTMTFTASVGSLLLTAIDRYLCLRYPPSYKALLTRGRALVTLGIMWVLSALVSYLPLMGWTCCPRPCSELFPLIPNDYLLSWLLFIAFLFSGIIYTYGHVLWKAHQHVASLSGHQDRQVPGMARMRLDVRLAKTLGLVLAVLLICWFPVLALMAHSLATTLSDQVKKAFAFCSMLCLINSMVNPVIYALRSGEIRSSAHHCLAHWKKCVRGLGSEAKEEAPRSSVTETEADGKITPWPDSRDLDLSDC

Compound | EC50 (human CB2 receptors; read-out: Human CB2 EC50) [µM] | EC50 (human CB1 receptors; read-out: Human CB1 EC50) [µM] | EC50 (human CB2 receptors; Human CB2 EC50 (uM)) [µM] | EC50 (human CB1 receptors; Human CB1 EC50 (uM)) [µM]
CC(C)(C)C(NC(=O)c1cc(OCC2CC2)c(C2CC2)cn1)c1nccs1 (centres unmarked) [Example 43, 5-Cyclopropyl-4-cyclopropylmethoxy-pyridine-2-carboxylic acid (2,2-dimethyl-1-thiazol-2-yl-propyl)-amide] | 0.0032 | > 10 | – | –
Cc1nc(C(C)(NC(=O)c2cc(OCC3CC3)c(C3CC3)cn2)C2CC2)no1 (centres unmarked) [Example 44, 5-Cyclopropyl-4-cyclopropylmethoxy-pyridine-2-carboxylic acid [1-cyclopropyl-1-(5-methyl-[1,2,4]oxadiazol-3-yl)-ethyl]-amide] | 0.0007 | > 10 | – | –
CCC(CC)(NC(=O)c1cc(OCC2CC2)c(C2CC2)cn1)C(=O)NC [Example 45, 5-Cyclopropyl-4-cyclopropylmethoxy-pyridine-2-carboxylic acid (1-ethyl-1-methylcarbamoyl-propyl)-amide] | 0.017 | > 10 | – | –
O=C(NC(c1ccccn1)C(F)(F)F)c1cc(OCC2CC2)c(C2CC2)cn1 (centres unmarked) [Example 46, 5-Cyclopropyl-4-cyclopropylmethoxy-pyridine-2-carboxylic acid (2,2,2-trifluoro-1-pyridin-2-yl-ethyl)-amide] | 0.0067 | > 10 | – | –
CC(C)C[C@H](NC(=O)c1cc(OCC2CC2)c(C2CC2)cn1)C(N)=O [Example 47, 5-Cyclopropyl-4-cyclopropylmethoxy-pyridine-2-carboxylic acid ((S)-1-carbamoyl-3-methyl-butyl)-amide] | 0.0118 | > 10 | – | –
CNC(=O)[C@@H](NC(=O)c1cc(OCC(F)(F)F)c(C2CC2)cn1)C(C)(C)C [Example 48, 5-Cyclopropyl-4-(2,2,2-trifluoro-ethoxy)-pyridine-2-carboxylic acid ((S)-2,2-dimethyl-1-methylcarbamoyl-propyl)-amide] | 0.00158 | 0.661 | – | –
Cc1nc(C(C)(NC(=O)c2cc(OCC(F)(F)F)c(C3CC3)cn2)C2CC2)no1 (centres unmarked) [Example 49, 5-Cyclopropyl-4-(2,2,2-trifluoro-ethoxy)-pyridine-2-carboxylic acid [1-cyclopropyl-1-(5-methyl-[1,2,4]oxadiazol-3-yl)-ethyl]-amide] | 0.0017 | > 10 | – | –
CC(C)(C)C(NC(=O)c1cc(OCC(F)(F)F)c(C2CC2)cn1)c1nccs1 (centres unmarked) [Example 50, 5-Cyclopropyl-4-(2,2,2-trifluoro-ethoxy)-pyridine-2-carboxylic acid (2,2-dimethyl-1-thiazol-2-yl-propyl)-amide] | 0.0058 | > 10 | – | –
O=C(NC(c1ccccn1)C(F)(F)F)c1cc(OCC(F)(F)F)c(C2CC2)cn1 (centres unmarked) [Example 51, 5-Cyclopropyl-4-(2,2,2-trifluoro-ethoxy)-pyridine-2-carboxylic acid (2,2,2-trifluoro-1-pyridin-2-yl-ethyl)-amide] | 0.0122 | > 10 | – | –
CC(C)C[C@H](NC(=O)c1cc(OCC(F)(F)F)c(C2CC2)cn1)C(N)=O [Example 52, 5-Cyclopropyl-4-(2,2,2-trifluoro-ethoxy)-pyridine-2-carboxylic acid ((S)-1-carbamoyl-3-methyl-butyl)-amide] | 0.0778 | > 10 | – | –
O=C(NC1(CO)CC1)c1cc(OCC2CC2)c(N2CC(F)(F)C2)cn1 [Example 53, 4-Cyclopropylmethoxy-5-(3,3-difluoro-azetidin-1-yl)-pyridine-2-carboxylic acid (1-hydroxymethyl-cyclopropyl)-amide] | 0.0726 | > 10 | – | –
CCC(CC)(CO)NC(=O)c1cc(OCC(F)(F)F)c(C2CC2)cn1 [Example 54, 5-Cyclopropyl-4-(2,2,2-trifluoro-ethoxy)-pyridine-2-carboxylic acid (1-ethyl-1-hydroxymethyl-propyl)-amide] | 0.0185 | > 10 | – | –
O=C(NC1(CO)CCCCC1)c1cc(OCC(F)(F)F)c(C2CC2)cn1 [Example 55, 5-Cyclopropyl-4-(2,2,2-trifluoro-ethoxy)-pyridine-2-carboxylic acid (1-hydroxymethyl-cyclohexyl)-amide] | 0.0157 | > 10 | – | –
O=C(NCC1(O)CCCC1)c1cc(OCC2CC2)c(C2CC2)cn1 [Example 56, 5-Cyclopropyl-4-cyclopropylmethoxy-pyridine-2-carboxylic acid (1-hydroxy-cyclopentylmethyl)-amide] | 0.0181 | > 10 | – | –
O=C(NCC1(O)CCCCC1)c1cc(OCC2CC2)c(C2CC2)cn1 [Example 57, 5-Cyclopropyl-4-cyclopropylmethoxy-pyridine-2-carboxylic acid (1-hydroxy-cyclohexylmethyl)-amide] | 0.013 | > 10 | – | –
CCC(O)CNC(=O)c1cc(OCC2CC2)c(C2CC2)cn1 (centres unmarked) [Example 58, 5-Cyclopropyl-4-cyclopropylmethoxy-pyridine-2-carboxylic acid (2-hydroxy-butyl)-amide] | 0.0637 | > 10 | – | –

Compound | EC50 (human CB2 receptors; read-out: Human CB2 EC50) [µM] | EC50 (human CB1 receptors; read-out: Human CB1 EC50) [µM] | EC50 (human CB2 receptors; Human CB2 EC50 (uM)) [µM] | EC50 (human CB1 receptors; Human CB1 EC50 (uM)) [µM]
CC(C)(O)CNC(=O)c1cc(OCC2CC2)c(C2CC2)cn1 [Example 59, 5-Cyclopropyl-4-cyclopropylmethoxy-pyridine-2-carboxylic acid (2-hydroxy-2-methyl-propyl)-amide] | 0.0816 | > 10 | – | –
CC(C)(O)CNC(=O)c1cc(OCC(F)(F)F)c(C2CC2)cn1 [Example 60, 5-Cyclopropyl-4-(2,2,2-trifluoro-ethoxy)-pyridine-2-carboxylic acid (2-hydroxy-2-methyl-propyl)-amide] | 0.481 | > 10 | – | –
Cc1nc(C(C)(NC(=O)c2cc(OCC(F)(F)F)c(Cl)cn2)C2CC2)no1 (centres unmarked) [Example 62, 5-Chloro-4-(2,2,2-trifluoro-ethoxy)-pyridine-2-carboxylic acid [1-cyclopropyl-1-(5-methyl-[1,2,4]oxadiazol-3-yl)-ethyl]-amide] | 0.0089 | > 10 | – | –
C[C@@H](Oc1cc(C(=O)NC2(CC(N)=O)COC2)ncc1C1CC1)C(F)(F)F [Example 63, 5-Cyclopropyl-4-((R)-2,2,2-trifluoro-1-methyl-ethoxy)-pyridine-2-carboxylic acid (3-carbamoylmethyl-oxetan-3-yl)-amide] | 0.283 | > 10 | – | –
C[C@H](Oc1cc(C(=O)NC2(CC(N)=O)COC2)ncc1C1CC1)C(F)(F)F [Example 64, 5-Cyclopropyl-4-((S)-2,2,2-trifluoro-1-methyl-ethoxy)-pyridine-2-carboxylic acid (3-carbamoylmethyl-oxetan-3-yl)-amide] | 0.515 | > 10 | – | –
CC(C)(C)NC(=O)c1cc(OCC(F)(F)F)c(C2CC2)cn1 [Example 70, 5-Cyclopropyl-4-(2,2,2-trifluoro-ethoxy)-pyridine-2-carboxylic acid tert-butylamide] | 0.0104 | > 10 | – | –
O=C(c1cc(OCC(F)(F)F)c(C2CC2)cn1)N1CCCC12COC2 [Example 71, [5-Cyclopropyl-4-(2,2,2-trifluoro-ethoxy)-pyridin-2-yl]-(2-oxa-5-aza-spiro[3.4]oct-5-yl)-methanone] | 0.586 | > 10 | – | –
O=C(c1cc(OCC(F)(F)F)c(C2CC2)cn1)N1CC(F)(F)C1 [Example 76, [5-Cyclopropyl-4-(2,2,2-trifluoro-ethoxy)-pyridin-2-yl]-(3,3-difluoro-azetidin-1-yl)-methanone] | 0.167 | > 10 | – | –
CCC(C)(NC(=O)c1cc(OCC(F)(F)F)c(C2CC2)cn1)C(N)=O (centres unmarked) [Example 77, 5-Cyclopropyl-4-(2,2,2-trifluoro-ethoxy)-pyridine-2-carboxylic acid (1-carbamoyl-1-methyl-propyl)-amide] | 0.137 | > 10 | – | –
Cc1nc(C(C)(NC(=O)c2cc(OCC(F)(F)F)c(N3CC(F)(F)C3)cn2)C2CC2)no1 (centres unmarked) [Example 78, 5-(3,3-Difluoro-azetidin-1-yl)-4-(2,2,2-trifluoro-ethoxy)-pyridine-2-carboxylic acid [1-cyclopropyl-1-(5-methyl-[1,2,4]oxadiazol-3-yl)-ethyl]-amide] | 0.0061 | > 10 | – | –
Cc1nc(C(C)(NC(=O)c2cc(OCC(F)(F)F)c(N3CCC(F)(F)C3)cn2)C2CC2)no1 (centres unmarked) [Example 79, 5-(3,3-Difluoro-pyrrolidin-1-yl)-4-(2,2,2-trifluoro-ethoxy)-pyridine-2-carboxylic acid [1-cyclopropyl-1-(5-methyl-[1,2,4]oxadiazol-3-yl)-ethyl]-amide] | 0.0065 | 0.19 | – | –
Cc1nc(C(C)(CS(C)(=O)=O)NC(=O)c2cc(OCC(F)(F)F)c(Cl)cn2)no1 (centres unmarked) [Example 80, 5-Chloro-4-(2,2,2-trifluoro-ethoxy)-pyridine-2-carboxylic acid [2-methanesulfonyl-1-methyl-1-(5-methyl-[1,2,4]oxadiazol-3-yl)-ethyl]-amide] | 0.969 | > 10 | – | –
Cc1nc(C(C)(CS(C)(=O)=O)NC(=O)c2cc(O[C@@H](C)C(F)(F)F)c(C3CC3)cn2)no1 (stereo partly drawn) [Example 81, 5-Cyclopropyl-4-((S)-2,2,2-trifluoro-1-methyl-ethoxy)-pyridine-2-carboxylic acid [2-methanesulfonyl-1-methyl-1-(5-methyl-[1,2,4]oxadiazol-3-yl)-ethyl]-amide] | – | – | 0.0053 | 0.19
CC(C)CC(C)(NC(=O)c1cc(OCC(F)(F)F)c(C2CC2)cn1)C(N)=O (centres unmarked) [Example 82, 5-Cyclopropyl-4-(2,2,2-trifluoro-ethoxy)-pyridine-2-carboxylic acid (1-carbamoyl-1,3-dimethyl-butyl)-amide] | 0.0805 | > 10 | – | –
Cc1nc(C(C)(CC(C)(C)C)NC(=O)c2cc(OCC(F)(F)F)c(Cl)cn2)no1 (centres unmarked) [Example 83, 5-Chloro-4-(2,2,2-trifluoro-ethoxy)-pyridine-2-carboxylic acid [1,3,3-trimethyl-1-(5-methyl-[1,2,4]oxadiazol-3-yl)-butyl]-amide] | 0.025 | > 10 | – | –
